Results published in patent US11434212B2, “Bicyclic compound as a caspase inhibitor” (CHIA TAI TIANQING PHARMACEUTICAL GROUP CO., LTD., priority 2017, dated 2022).

Experiments:
Assay type in all cases: biochemical
Settings in all cases: fluorogenic substrate 50 μM; test concentrations 1000 nM to 0.32 nM
Caspase-3 = molecular target: T1, Caspase-3 (Homo sapiens, UniProt P42574); assay: In vitro inhibitory activity on Caspase-3 (BioVision Caspase-3 Inhibitor Screening Kit)
T1 construct: purchased BioVision K153-100
T1 sequence (P42574 29-175 limits assumed): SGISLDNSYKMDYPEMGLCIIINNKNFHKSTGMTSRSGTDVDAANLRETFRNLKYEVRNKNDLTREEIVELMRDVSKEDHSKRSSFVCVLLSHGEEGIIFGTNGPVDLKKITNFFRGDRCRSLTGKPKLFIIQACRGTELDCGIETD
T1 sequence (P42574 176-277 limits assumed): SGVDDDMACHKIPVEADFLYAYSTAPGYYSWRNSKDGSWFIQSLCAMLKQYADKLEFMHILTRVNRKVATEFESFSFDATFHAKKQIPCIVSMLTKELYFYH
Protocol: (§1) Caspase Inhibitor Screening Kit for BioVision was used in this experiment to test the inhibitory activity of the test compounds on Caspase.
Caspase-3 Inhibitor Screening Kit (BioVision #K153-100)
(§2) Note: Each caspase enzymatic experiment uses the reagents in corresponding kit thereof. Each enzyme was dissolved in 550 μl of the corresponding 2× reaction buffer, sub-packed and stored at −80° C., respectively.
(§3) 1) The compound was diluted to a 200*test concentration with DMSO via the multiple dilution, then to a 2*test concentration with ddH2O, and added to a 384-well experimental plate at 12.5 μl per well. Test compounds and control compounds were tested at 6 concentration points, test concentrations ranging from 1000 nM to 0.32 nM. The ddH2O containing 1% DMSO was added to the 0% inhibition control well, and a high concentration of the control compound was added to the 100% inhibition control well (final concentration: 5 μM).
(§4) 2) 2× reaction buffer containing 10 mM DTT was prepared. The enzyme caspase stock solution was diluted 5-fold with 2× reaction buffer containing 10 mM DTT and added to a 384-well experimental plate at 6.25 μl per well. After being mixed, the enzyme and compounds were incubated at 37° C. for 30 minutes.
(§5) 3) The fluorogenic substrate of the enzyme caspase was diluted 5-fold with 2× reaction buffer containing 10 mM DTT, and then added to a 384-well experimental plate at 6.25 μl per well. The total reaction volume was 25 μl, the final concentration of the substrate was 50 μM, and the final concentration of DMSO was 0.5%. After the substrate was added, the 384-well experimental plate was incubated at 37° C. for 30 minutes.
(§6) 4) The fluorescence intensity (excitation light wavelength was 400 nm, emission light wavelength was 505 nm) was measured by using a multi-function microplate reader. Fluorescence intensity was used to calculate the inhibitory effect of the compounds on Caspase. GraphPad Prism software was used for fitting compound inhibition curves and calculating IC50 values.

Caspase-8 = molecular target: T2, Caspase-8 (Homo sapiens, UniProt Q14790); assay: In vitro inhibitory activity on Caspase-8 (BioVision Caspase-8 Inhibitor Screening Kit)
T2 construct: purchased BioVision K158-100
T2 sequence (Q14790 217-374 limits assumed): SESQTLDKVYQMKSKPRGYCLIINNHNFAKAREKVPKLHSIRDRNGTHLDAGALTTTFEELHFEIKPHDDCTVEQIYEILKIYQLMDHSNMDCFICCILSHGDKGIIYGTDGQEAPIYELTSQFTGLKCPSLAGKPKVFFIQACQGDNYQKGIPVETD
T2 sequence (Q14790 385-479 limits assumed): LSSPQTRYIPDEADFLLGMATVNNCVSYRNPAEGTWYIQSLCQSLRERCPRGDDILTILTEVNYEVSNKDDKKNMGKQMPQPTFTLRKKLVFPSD
Protocol: as §1
Caspase-8 Inhibitor Screening Kit (BioVision #K158-100)
as §2, §3, §4, §5, §6

Caspase-1 = molecular target: T3, Caspase-1 (Homo sapiens, UniProt P29466); assay: In vitro inhibitory activity on Caspase-1 (BioVision Caspase-1 Inhibitor Screening Kit)
T3 construct: purchased BioVision K151-100
T3 sequence (P29466 120-297 limits assumed): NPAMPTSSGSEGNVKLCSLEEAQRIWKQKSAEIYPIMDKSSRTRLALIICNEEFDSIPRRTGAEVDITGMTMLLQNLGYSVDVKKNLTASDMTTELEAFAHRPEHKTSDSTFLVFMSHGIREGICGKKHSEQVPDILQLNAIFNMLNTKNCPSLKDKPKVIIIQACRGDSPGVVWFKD
T3 sequence (P29466 317-404 limits assumed): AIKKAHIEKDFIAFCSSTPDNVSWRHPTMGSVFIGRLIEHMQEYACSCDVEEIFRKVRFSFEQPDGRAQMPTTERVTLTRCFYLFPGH
Protocol: as §1
Caspase-1 Inhibitor Screening Kit (BioVision #K151-100)
as §2, §3, §4, §5, §6

| IC50 (Caspase-3) | IC50 (Caspase-8) | IC50 (Caspase-1) | Structure (SMILES) |
| --- | --- | --- | --- |
| 13.7 nM | 16.8 nM | 3.9 nM | C[C@H](NC(=O)c1cc(-c2ccccc2F)n[nH]1)C(=O)N[C@@H](CC(=O)O)C(=O)COc1c(F)c(F)cc(F)c1F [Example 5] |
| 9.5 nM | 31.4 nM | 4.2 nM | C[C@H](NC(=O)c1cc(-c2ccccc2Cl)no1)C(=O)N[C@@H](CC(=O)O)C(=O)COc1c(F)c(F)cc(F)c1F [Example 17] |
| 24 nM | 25.9 nM | 4.8 nM | C[C@H](NC(=O)c1c[nH]c(-c2ccccc2)n1)C(=O)N[C@@H](CC(=O)O)C(=O)COc1c(F)c(F)cc(F)c1F [Example 3] |
| 24.5 nM | 19.9 nM | 6 nM | C[C@H](NC(=O)c1cc(-c2ccc(Cl)cc2)on1)C(=O)N[C@@H](CC(=O)O)C(=O)COc1c(F)c(F)cc(F)c1F [Example 6] |
| 26.1 nM | 62.1 nM | 7.5 nM | C[C@H](NC(=O)c1cc(-c2ccccc2Cl)on1)C(=O)N[C@H](CC(=O)O)C(=O)COc1c(F)c(F)cc(F)c1F [Example 18] |
| 30 nM | 22.6 nM | 9.2 nM | C[C@H](NC(=O)c1cc(-c2ccccc2C(F)(F)F)on1)C(=O)N[C@@H](CC(=O)O)C(=O)COc1c(F)c(F)cc(F)c1F [Example 11] |
